Where a name gives a salt, the structure may show the parent alone. Read-outs that look alike come from different tables or passages of the source.
Legend:
Type in all cases: cell-based
S. aureus ATCC 25923 = assay: MIC, CLSI broth microdilution (Table 1); conditions: Staphylococcus aureus
[1] = tested on: S. aureus ATCC 43300 (MRSA, FQ-S); assay: MIC, CLSI broth microdilution (Table 1); conditions: Staphylococcus aureus, read-out: MIC S. aureus ATCC 43300 (MRSA, FQ-S)
[2] = tested on: S. aureus BAA-1720 (MRSA, FQ-R); assay: MIC, CLSI broth microdilution (Table 1); conditions: Staphylococcus aureus; Gram positive; MHB, 37° C., 16-20 hours; read-out: MIC S. aureus BAA-1720 (MRSA, FQ-R)
E. faecium ATCC 19434 = assay: MIC, CLSI broth microdilution (Table 1); conditions: Enterococcus faecium
E. faecalis ATCC 29212 = assay: MIC, CLSI broth microdilution (Table 1); conditions: Enterococcus faecalis
S. pneumonia ATCC 49619 = assay: MIC, CLSI broth microdilution (Table 1); conditions: Streptococcus pneumoniae
E. coli ATCC 25922 = assay: MIC, CLSI broth microdilution (Table 2); conditions: Escherichia coli
A. baumannii ATCC 19606 = assay: MIC, CLSI broth microdilution (Table 2); conditions: Acinetobacter baumannii
P. aeruginosa ATCC 27853 = assay: MIC, CLSI broth microdilution (Table 2); conditions: Pseudomonas aeruginosa
K. pneumoniae ATCC 33495 = assay: MIC, CLSI broth microdilution (Table 2); conditions: Klebsiella pneumoniae
H. influenzae ATCC 49247 = assay: MIC, CLSI broth microdilution (Table 2); conditions: Haemophilus influenzae
[3] = tested on: S. maltophilia ATCC 17677; assay: MIC, CLSI broth microdilution (Table 2); conditions: Stenotrophomonas maltophilia
[4] = ATCC25923, Gram positive, MHB, 37° C., 16-20 hours, read-out: MIC S. aureus ATCC 25923
[5] = Gram positive, MHB, 37° C., 16-20 hours
[6] = ATCC19434, Gram positive, MHB, 37° C., 16-20 hours, read-out: MIC E. faecium ATCC 19434
[7] = ATCC29212, Gram positive, MHB, 37° C., 16-20 hours, read-out: MIC E. faecalis ATCC 29212
[8] = ATCC49619, Gram positive, MHB, 37° C., 16-20 hours, read-out: MIC S. pneumonia ATCC 49619
[9] = ATCC25922, Gram negative, MHB, 37° C., 16-20 hours, read-out: MIC E. coli ATCC 25922
[10] = ATCC19606, Gram negative, MHB, 37° C., 16-20 hours, read-out: MIC A. baumannii B. ATCC 19606
[11] = ATCC27853, Gram negative, MHB, 37° C., 16-20 hours, read-out: MIC P. aeruginosa ATCC 27853
[12] = ATCC33495, Gram negative, MHB, 37° C., 16-20 hours, read-out: MIC K. pneumoniae ATCC 33495
[13] = ATCC49247, Gram negative, MHB, 37° C., 16-20 hours, read-out: MIC H. influenzae ATCC 49247
[14] = ATCC17677, Gram negative, MHB, 37° C., 16-20 hours, read-out: MIC S. maltophilia ATCC 17677
[15] = ATCC25923, read-out: MIC S. aureus ATCC 25923
[16] = ATCC29212, read-out: MIC E. faecalis ATCC 29212
[17] = ATCC49619, read-out: MIC S. pneumonia ATCC 49619
[18] = ATCC25922, read-out: MIC E. coli ATCC 25922
[19] = ATCC19606, read-out: MIC A. baumannii B. ATCC 19606
[20] = ATCC33495, read-out: MIC K. pneumoniae ATCC 33495
[21] = ATCC49247, read-out: MIC H. influenzae ATCC 49247
[22] = ATCC17677, read-out: MIC S. maltophilia ATCC 17677

Row | SMILES | MIC (S. aureus ATCC 25923; [4]) [µg/mL] | MIC [1, 5] [µg/mL] | MIC [2] [µg/mL] | MIC (E. faecium ATCC 19434; [6]) [µg/mL] | MIC (E. faecalis ATCC 29212; [7]) [µg/mL] | MIC (S. pneumonia ATCC 49619; [8]) [µg/mL] | MIC (E. coli ATCC 25922; [9]) [µg/mL] | MIC (A. baumannii ATCC 19606; [10]) [µg/mL] | MIC (P. aeruginosa ATCC 27853; [11]) [µg/mL] | MIC (K. pneumoniae ATCC 33495; [12]) [µg/mL] | MIC (H. influenzae ATCC 49247; [13]) [µg/mL] | MIC [3, 14] [µg/mL] | other results
1 | Cc1c(-c2ccc(C(=O)O)cc2)c(F)cn2c(=O)c(C(=O)O)cc(C3CC3)c12 [Example 41 K salt, 8-(4-carboxy-phenyl)-1-cyclopropyl-7-fluoro-9-methyl-4-oxo-4H-quinolizine-3-carboxylic acid] | 2 | 0.25 | > 8 | > 8 | 0.25 | 0.5 to 1 | > 8 | > 8 | > 8 | > 8 | 0.032 | > 8 | –
2 | Cc1c(N2CCNCC2)ccn2c(=O)c(C(=O)O)cc(C3CC3)c12 [Example 34 K salt, 1-cyclopropyl-9-methyl-4-oxo-8-piperazin-1-yl-quinolizine-3-carboxylic acid] | 0.5 | 0.5 | > 8 | > 8 | 4 | 2 | 0.064 | 1 | 1 | 0.125 to 0.5 | 0.064 | 1 | –
3 | Cc1c(-c2ccc(N(C)C)cc2)ccn2c(=O)c(C(=O)O)cc(C3CC3)c12 [Example 25 K salt, 1-cyclopropyl-8-(4-(dimethylamino)-phenyl)-9-methyl-4-oxo-4H-quinolizine-3-carboxylic acid] | 0.064 | 0.064 | 1 | 8 | 0.125 | 0.25 | 0.5 | 1 | > 8 | 1 | 0.064 | 1 | –
4 | Cc1c(N2CC[C@H](N)C2)ccn2c(=O)c(C(=O)O)cc(C3CC3)c12 [Example 27 K salt, 8-[(3S)-3-aminopyrrolidin-1-yl]-1-cyclopropyl-9-methyl-4-oxo-quinolizine-3-carboxylic acid] | 1 | 0.5 | 8 | > 8 | 4 | 2 | 0.064 to 0.125 | 2 | 2 | 0.25 | 0.125 | 2 | –
5 | Cc1c(-c2ccc(C(N)=O)cc2)c(F)cn2c(=O)c(C(=O)O)cc(C3CC3)c12 [Example 6 K salt, 8-(4-carbamoyl-phenyl)-1-cyclopropyl-7-fluoro-9-methyl-4-oxo-4H-quinolizine-3-carboxylic acid] | – | – | – | – | – | – | – | – | – | – | – | – | MIC (S. aureus ATCC 25923; [15]): 0.008 to 0.016 µg/mL; MIC [1]: 0.008 µg/mL; MIC (E. faecalis ATCC 29212; [16]): 0.016 µg/mL; MIC (S. pneumonia ATCC 49619; [17]): 0.032 µg/mL; MIC (E. coli ATCC 25922; [18]): 0.125 µg/mL; MIC (A. baumannii ATCC 19606; [19]): 0.5 µg/mL; MIC (K. pneumoniae ATCC 33495; [20]): 0.5 µg/mL; MIC (H. influenzae ATCC 49247; [21]): ≤ 0.004 µg/mL; MIC [3, 22]: 0.5 µg/mL
6 | Cc1c(-c2ccc(N)cc2)c(F)cn2c(=O)c(C(=O)O)cc(C3CC3)c12 [Example 5 K salt, 8-(4-amino-phenyl)-1-cyclopropyl-7-fluoro-9-methyl-4-oxo-4H-quinolizine-3-carboxylic acid] | – | – | – | – | – | – | – | – | – | – | – | – | MIC (S. aureus ATCC 25923; [15]): 0.008 µg/mL; MIC [1]: 0.008 µg/mL; MIC (E. faecium ATCC 19434; ATCC19434, read-out: MIC E. faecium ATCC 19434): 0.5 µg/mL; MIC (E. faecalis ATCC 29212; [16]): 0.016 to 0.032 µg/mL; MIC (S. pneumonia ATCC 49619; [17]): 0.032 µg/mL; MIC (E. coli ATCC 25922; [18]): 0.064 µg/mL; MIC (A. baumannii ATCC 19606; [19]): 0.064 µg/mL; MIC (P. aeruginosa ATCC 27853; ATCC27853, read-out: MIC P. aeruginosa ATCC 27853): 2 µg/mL; MIC (K. pneumoniae ATCC 33495; [20]): 0.125 to 0.25 µg/mL; MIC (H. influenzae ATCC 49247; [21]): ≤ 0.004 µg/mL; MIC [3, 22]: 0.125 µg/mL

Continued, in another order:

Row | MIC (S. aureus ATCC 25923; [4]) [µg/mL] | MIC [1, 5] [µg/mL] | MIC [2] [µg/mL] | MIC (E. faecium ATCC 19434; [6]) [µg/mL] | MIC (E. faecalis ATCC 29212; [7]) [µg/mL] | MIC (S. pneumonia ATCC 49619; [8]) [µg/mL] | MIC (E. coli ATCC 25922; [9]) [µg/mL] | MIC (A. baumannii ATCC 19606; [10]) [µg/mL] | MIC (P. aeruginosa ATCC 27853; [11]) [µg/mL] | MIC (K. pneumoniae ATCC 33495; [12]) [µg/mL] | MIC (H. influenzae ATCC 49247; [13]) [µg/mL] | MIC [3, 14] [µg/mL] | SMILES | other results
7 | 0.016 | 0.016 | 0.25 | 1 | 0.032 | 0.125 | 0.125 | 0.125 | 8 | 0.25 | 0.008 | 0.25 | Cc1c(-c2cccc(N)c2)c(F)cn2c(=O)c(C(=O)O)cc(C3CC3)c12 [Example 4 K salt, 8-(3-amino-phenyl)-1-cyclopropyl-7-fluoro-9-methyl-4-oxo-4H-quinolizine-3-carboxylic acid] | –
8 | 0.016 to 0.032 | 0.032 | 2 | 4 | 0.125 | 0.5 | 0.064 to 0.125 | 0.25 | 4 | 0.125 | 0.008 | 0.25 | Cc1c(-c2cc[nH]c2)ccn2c(=O)c(C(=O)O)cc(C3CC3)c12 [Example 43 K salt, 1-cyclopropyl-9-methyl-4-oxo-8-(1H-pyrrol-3-yl)-4H-quinolizine-3-carboxylic acid] | –
9 | 0.064 | 0.032 | 1 | 2 | 0.064 | 0.25 | 1 | 1 to 2 | > 8 | 2 to 4 | 0.064 | 4 | Cc1cc(-c2ccn3c(=O)c(C(=O)O)cc(C4CC4)c3c2C)c(Cl)cc1N [Example 30 K salt, 1-cyclopropyl-8-(4-amino-2-chloro-5-methyl-phenyl)-9-methyl-4-oxo-4H-quinolizine-3-carboxylic acid] | –
10 | 0.008 | 0.008 | 0.25 | 0.5 | 0.032 | 0.032 to 0.064 | 0.064 | 0.125 | 4 | 0.125 to 0.25 | 0.008 | 0.25 | Cc1c(-c2ccc(N)cc2F)ccn2c(=O)c(C(=O)O)cc(C3CC3)c12 [Example 7 K salt, 8-(4-amino-2-fluoro-phenyl)-1-cyclopropyl-9-methyl-4-oxo-4H-quinolizine-3-carboxylic acid] | –
11 | 0.008 | 0.008 | 0.25 | 0.25 | 0.032 | 0.064 | 0.032 | 0.064 | 1 | 0.064 to 0.25 | 0.008 | 0.125 | Cc1c(-c2ccc(N)cc2)ccn2c(=O)c(C(=O)O)cc(C3CC3)c12 [Example 18 K salt, 8-(4-amino-phenyl)-1-cyclopropyl-9-methyl-4-oxo-4H-quinolizine-3-carboxylic acid] | –
12 | 0.008 | 0.016 | 0.5 | 4 | 0.032 | 0.125 | 0.125 | 0.25 | 4 | 0.25 | 0.016 | 0.5 | Cc1c(-c2ccc3[nH]ccc3c2)ccn2c(=O)c(C(=O)O)cc(C3CC3)c12 [Example 22 K salt, 1-cyclopropyl-8-(1H-indol-5-yl)-9-methyl-4-oxo-4H-quinolizine-3-carboxylic acid] | –
13 | ≤ 0.004 | ≤ 0.004 | 0.064 | > 8 | 0.008 to 0.016 | 0.016 | 0.064 to 0.125 | 0.125 | > 8 | 1 to 2 | ≤ 0.004 | 0.25 | Cc1c(-c2cc(F)c(N)cc2F)c(F)cn2c(=O)c(C(=O)O)cc(C3CC3)c12 [Example 38 K salt, 8-(4-amino-2,5-difluoro-phenyl)-1-cyclopropyl-7-fluoro-9-methyl-4-oxo-4H-quinolizine-3-carboxylic acid] | –
14 | 0.016 | 0.016 | 1 | > 8 | 0.032 | 0.064 | 0.125 | 0.5 to 1 | > 8 | 1 | 0.016 to 0.032 | 0.5 | CNc1ccc(-c2ccn3c(=O)c(C(=O)O)cc(C4CC4)c3c2C)cc1 [Example 15 K salt, 1-cyclopropyl-9-methyl-8-(4-(methylamino)-phenyl)-4-oxo-4H-quinolizine-3-carboxylic acid] | –
